Among the data in the SangsterLogP compilation are logP values, retold here.

Molecules are shown by their SMILES.

A short description of this data set: method code SF-AS, from DOI: 10.1002/ps.2780410210.
For the compound `Cc1ccc(C(=O)N(NC(=O)c2ccccc2)C(C)(C)C)cc1`, the logP was 2.99.
Then `Cc1ccc(C(=O)N(NC(=O)c2ccccc2)C(C)(C)C)cc1C`, with 3.34; and `CC(C)(C)N(NC(=O)c1ccccc1)C(=O)c1cccc(C#N)c1`, with 2.34; and `Cc1ccc(C)c(C(=O)N(NC(=O)c2ccccc2)C(C)(C)C)c1`, with 3.25.
As to `CC(C)(C)N(NC(=O)c1ccccc1)C(=O)c1cccc(Cl)c1`, the logP came out at 3.28.
For `CC(C)(C)N(NC(=O)c1ccccc1)C(=O)c1ccccc1F`, the logP stood at 2.38.
Regarding `CCc1ccccc1C(=O)N(NC(=O)c1ccccc1)C(C)(C)C`, the logP came to 2.96.
`CC(C)(C)N(NC(=O)c1ccccc1)C(=O)c1cccc([N+](=O)[O-])c1` showed a logP of 2.73.
Compound `CC(C)(C)N(NC(=O)c1ccccc1)C(=O)c1ccc(C(F)(F)F)cc1` showed a logP of 3.77.
Consider `CC(C)(C)N(NC(=O)c1ccccc1)C(=O)c1ccccc1`, for which the logP came out at 2.45.
As to `CC(C)(C)N(NC(=O)c1ccccc1)C(=O)c1cccc(C(F)(F)F)c1`, the logP worked out at 3.61.
Compound `CC(C)(C)N(NC(=O)c1ccccc1)C(=O)c1cccc(I)c1` displayed a logP of 3.72.
`CC(C)(C)N(NC(=O)c1ccccc1)C(=O)c1ccc(Cl)cc1Cl` had a lipophilicity (logP) of 3.55.
Regarding `CC(C)(C)N(NC(=O)c1ccccc1)C(=O)c1ccc(F)cc1`, the lipophilicity (logP) was 2.85.
Compound `Cc1c(Cl)cccc1C(=O)N(NC(=O)c1ccccc1)C(C)(C)C` had a logP of 3.57.
On to `CC(C)(C)N(NC(=O)c1ccccc1)C(=O)c1ccccc1I`, for which the logP was 2.83.
For `CSc1ccccc1C(=O)N(NC(=O)c1ccccc1)C(C)(C)C`, the logP is 2.6.
Then `CC(C)(C)N(NC(=O)c1ccccc1)C(=O)c1c(F)cccc1F`, with 2.16.
In turn, `CC(C)(C)N(NC(=O)c1ccccc1)C(=O)c1ccc([N+](=O)[O-])cc1` gave a logP of 2.63.
As for `CC(C)(C)N(NC(=O)c1ccccc1)C(=O)c1ccc(Cl)c(Cl)c1`, the logP was determined as 4.25.
In turn, `CC(C)(C)N(NC(=O)c1ccccc1)C(=O)c1cc(Cl)ccc1Cl` displayed a log partition coefficient (logP) of 3.36.
On to `CC(C)(C)N(NC(=O)c1ccccc1)C(=O)c1cccc(Br)c1`, for which the lipophilicity (logP) was 3.49.
`CC(C)(C)N(NC(=O)c1ccccc1)C(=O)c1c(F)c(F)c(F)c(F)c1F` displayed a logP of 3.25.
`CC(C)(C)N(NC(=O)c1ccccc1)C(=O)c1cc(F)c(F)c(F)c1F` had a logP of 3.44.
For the compound `CC(C)(C)N(NC(=O)c1ccccc1)C(=O)c1cccc(Cl)c1Cl`, the logP worked out at 3.41.
Compound `CC(C)(C)N(NC(=O)c1ccccc1)C(=O)c1ccc(I)cc1` gave a logP of 3.78.
The compound `Cc1cccc(C(=O)N(NC(=O)c2ccccc2)C(C)(C)C)c1C` came in with a logP of 3.1.
`CC(C)(C)N(NC(=O)c1ccccc1)C(=O)c1c(Cl)cccc1Cl`: the logP is 2.56.
Turning to `CC(C)(C)N(NC(=O)c1ccccc1)C(=O)c1c(F)cccc1Cl`, the logP was 2.34.
Compound `COc1cccc(C(=O)N(NC(=O)c2ccccc2)C(C)(C)C)c1` registered a logP of 2.56.
The result for `COc1ccc(C(=O)N(NC(=O)c2ccccc2)C(C)(C)C)cc1OC` reads 2.09; that for `CC(C)(C)N(NC(=O)c1ccccc1)C(=O)c1ccc(Cl)cc1`, 3.42.
Consider `COc1ccc(C(=O)N(NC(=O)c2ccccc2)C(C)(C)C)cc1`, for which the logP worked out at 2.56.
`CC(C)(C)N(NC(=O)c1ccccc1)C(=O)c1ccc(C#N)cc1` showed a logP of 2.5.
For the compound `Cc1ccc(C(=O)N(NC(=O)c2ccccc2)C(C)(C)C)c(C)c1`, the logP came out at 3.18.
Regarding `CC(C)(C)N(NC(=O)c1ccccc1)C(=O)c1ccccc1[N+](=O)[O-]`, the logP is 2.27.
In turn, `CC(C)(C)N(NC(=O)c1ccccc1)C(=O)c1ccccc1Br` returned a log partition coefficient (logP) of 2.69.
`CC(C)(C)N(NC(=O)c1ccccc1)C(=O)c1ccccc1C(F)(F)F`: the logP is 2.85.
Consider `CC(C)(C)N(NC(=O)c1ccccc1)C(=O)c1ccc(Br)cc1`, for which the logP turned out to be 3.66.
For `Cc1ccccc1C(=O)N(NC(=O)c1ccccc1)C(C)(C)C`, the logP turned out to be 2.75.
Then `COc1ccccc1C(=O)N(NC(=O)c1ccccc1)C(C)(C)C`, with 2.04; and `Cc1cccc(C(=O)N(NC(=O)c2ccccc2)C(C)(C)C)c1`, with 2.79.
Then `CC(C)(C)N(NC(=O)c1ccccc1)C(=O)c1cccc(F)c1`, with 2.78; and `Cc1cc(C)cc(C(=O)N(NC(=O)c2ccccc2)C(C)(C)C)c1`, with 3.39.

For orientation: logP means a log measure of how a compound divides between an organic and an aqueous phase. A higher logP goes with a more lipophilic compound.
